In article PMC7524759, “Solution structure of the Hop TPR2A domain and investigation of target druggability by NMR, biochemical and in silico approaches” (Scientific Reports, 2020):
“Also recorded” adds a separate entry of the source. Like-named read-outs stand apart in the source and are kept apart here.

How the values were obtained:
[1] = target: T1, Hop TPR2A-Hsp90 MEEVD interaction (Homo sapiens, UniProt P31948); experiment: LANCE (TR-FRET) proximity assay of Hop TPR2A binding to biotin-Hsp90 MEEVD peptide; conditions: for LE (ligand efficiency): approximated from LANCE IC50 values using number of heavy atoms
T1 construct: The TPR2A domain of human Hop, residues 218-350, was cloned from full-length Hop cDNA; made in house; host or cells: Escherichia coli BL21 (DE3) pLysS
Method: Compounds containing succinic acid substructures were therefore selected to mimic the natural carboxylate clamp interaction between the Hsp90 C-terminus and TPR cochaperones. […] In this assay, compounds that block the protein-peptide interaction cause a loss in fluorescent signal.
The labelling reagents used were Surelight APC-SA and LANCE Eu-1024 Anti-6xHis (both PerkinElmer). Assays were performed in black low volume 384-well plates (Corning) with a total volume of 20 μl per well in assay buffer of 20 mM HEPES pH 7.4, 100 mM NaCl, 1 mM DTT, 0.1% Tween-20. […] Compound stocks to be screened were individually corrected to approximately neutral pH due to their highly acidic nature and dispensed using a Labcyte Echo acoustic dispenser.
Raw fluorescence or luminescence values from compound screening were converted to % inhibition of the total assay signal. IC50 values were determined by plotting % inhibition against the log10 of inhibitor concentration and fitted using a variable slope, four-parameter concentration–response curve using a robust fit in GraphPad Prism. […] To generate IC50 values, assays were repeated independently 3 times with duplicate or triplicate wells for each run. […] Ligand efficiency (LE) was approximated from LANCE biochemical IC50 values using the number of heavy atoms (HA)[67].

Hop TPR2A = target: T2, Hop TPR2A (Homo sapiens, UniProt P31948); experiment: NMR 1H-15N HSQC chemical shift perturbation (CSP) titration; assay type: binding; conditions: for Kd: Mean ± S.D. for 10 fitted residues
T2 construct: The TPR2A domain of human Hop, residues 218-350, was cloned from full-length Hop cDNA; 6xHis (N, cleaved yes); made in house; host or cells: Escherichia coli BL21 (DE3) pLysS
Method: Chemical shift perturbation (CSP) experiments were carried out on protein and compound mixtures to characterise protein–ligand interactions. ^1H-^15N HSQC spectra were collected on 200 μl samples in 20 mM Na2HPO4 pH 6.5, 50 mM NaCl, 1 mM DTT with 10% D2O in 3 mm NMR tubes (GPE Scientific). […] Each sample was prepared with 100 μM protein while compound or peptide concentration varied according to the experiment. Where possible, compound or peptide stocks were made up in NMR buffer to minimise buffer effects on the spectra. Compounds were otherwise diluted from DMSO stocks maintaining a maximum final DMSO concentration of 3% v/v. HSQC spectra of the protein with DMSO in the buffer were collected as controls. ^1H–^15N HSQC spectra were collected using standard pulse sequences.
Changes in chemical shifts (∆δ) were calculated for each backbone assigned N–H peak using a weighted CSP[70]. In order to visualise the locations of the largest shifts the ∆δ values were edited into a Hop TPR2A PDB file (in place of B-factors) and represented as surface heat maps in PyMol. Kd values from CSP titrations were calculated from HSQC spectra collected at a series of increasing compound concentrations[58], plots are representative of one titration for several different residues.
Chemical shift perturbation (CSP) experiments and Kd determination
Changes in chemical shifts were determined by tracking ligand shifted HSQC peaks in
NMRView and exporting the resultant peak lists to Excel. In Excel, using appropriate lists of
control peaks the change in chemical shift (Dd) was calculated for each backbone assigned
N-H peak using Equation S1.
(Equation S1) Δδ = %Δ𝛿!! + (0.2Δ𝛿#) -
Where Δ𝛿!! is the change in proton chemical shift, and Δ𝛿# is the change in nitrogen chemical
shift. Using a scaling factor (0.2) normalises the difference in magnitude of chemical shifts at
these two nuclei, various scaling factors are used in the literature and a value of 0.2 has been
To estimate Kd values from CSP titrations HSQC spectra were collected at a series of
increasing compound concentrations, peak lists for each concentration were generated and
exported to Excel. Then using GraphPad Prism the Dd values for each concentration were
fitted by non-linear regression to Equation S2, taken from Fielding 2007 equation 16 (see also
Williamson 2013 equation 6 for the derivation).
(Equation S2) Δ𝛿 = Δ𝛿&’( "[0]
In which Δ𝛿 is the adjusted chemical shift change, Δ𝛿&’( is the chemical shift change at
saturation, [𝑃]7 the total protein concentration, 𝐾8 the equilibrium dissociation constant, and
[𝐿]7the total ligand concentration. Here the Δ𝛿&’( was taken to be the observed Δ𝛿 at the
highest [𝐿]7. Except in cases where this was clearly far from saturation, when this variable
was not constrained during the curve fit.
Determining dissociation constants using CSP titrations requires that the experimental [P] is
high enough that the signal to noise of the experiment is sufficient while falling into a suitable
range for accurate curve fitting using equation S2.

Hsp90 (Homo sapiens) = experiment: ITC; conditions: cited from earlier work
[2] = test system: FLAG-tagged Hsp90 complexes (TPR cochaperone association) from HCT116 cells; experiment: FLAG co-immunoprecipitation Western blot of Hsp90 complexes; assay type: biochemical, human
[3] = n = 3 independent experiments, duplicate wells, Mean ± S.D.

T1 sequence (P31948 218-350): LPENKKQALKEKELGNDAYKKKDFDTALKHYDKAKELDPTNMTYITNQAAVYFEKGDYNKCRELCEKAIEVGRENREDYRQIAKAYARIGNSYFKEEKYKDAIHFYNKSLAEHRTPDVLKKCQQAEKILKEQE
T2 sequence (P31948 218-350): as above
Chain of Hop TPR2A (from UniProt P31948) (P31948 223-352): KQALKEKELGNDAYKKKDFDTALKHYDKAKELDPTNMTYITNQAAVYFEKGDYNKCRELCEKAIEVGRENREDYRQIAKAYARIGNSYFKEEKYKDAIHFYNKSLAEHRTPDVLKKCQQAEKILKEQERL

Row | Compound | LE (ligand efficiency) [1] | IC50 [1, 3] [µM] | Kd (Hop TPR2A) [µM] | also measured
1 | O=C(O)/C=C\C(=O)O [Compound 2] | 0.47 | 2170 | – | –
2 | O=C(O)c1ccccc1N1C(=O)C2Cc3c([nH]c4ccccc34)C(c3ccccc3)N2C1=O (stereo not shown) [Compound 9] | 0.14 | 452 ± 14 | 1410 | –
3 | Hop TPR2A (from UniProt P31948) | – | – | – | Kd (Hsp90 (Homo sapiens)): 11 µM
4 | Cc1cccc(C2c3[nH]c4ccccc4c3CC3C(=O)N(c4ccccc4C(=O)O)C(=O)N32)c1 (stereo not shown) [Compound 11] | 0.17 | 80 ± 5.8 | 177 ± 13 | TPR cochaperone association with Hsp90 complexes ([2]; added to HCT116 cell lysate, N = 1, qualitative): not; TPR cochaperone association with Hsp90 complexes ([2]; added to purified Hsp90 complexes, N = 1, preliminary, qualitative): reduce TPR cochaperone association; also recorded: may disrupt binding of Hop and another TPR cochaperone, PP5; CSP ∆δ (Hop TPR2A; residue Arg305): 0.38 ppm; CSP ∆δ (Hop TPR2A; residue Asn264): 0.36 ppm; CSP ∆δ (Hop TPR2A; residue Asn308): 0.12 ppm; CSP ∆δ (Hop TPR2A; residue Lys301): 0.1 ppm
5 | Cc1ccccc1C1c2[nH]c3ccccc3c2CC2C(=O)N(c3ccccc3C(=O)O)C(=O)N21 (stereo not shown) [Compound 12] | 0.17 | 94 ± 6.4 | 352 ± 39 | –
6 | Cc1ccc(C2c3[nH]c4ccccc4c3CC3C(=O)N(c4ccccc4C(=O)O)C(=O)N32)cc1 (stereo not shown) [Compound 10] | 0.15 | 234 ± 75 | 729 ± 164 | –

Now from value to compound, other results behind:

Row | LE (ligand efficiency) [1] | IC50 [1, 3] [µM] | Kd (Hop TPR2A) [µM] | Compound | also measured
7 | 0.12 | 1180 | – | COc1cccc(C2c3[nH]c4ccccc4c3CC3C(=O)N(c4ccc(C(=O)O)cc4)C(=O)N32)c1 (stereo not shown) [Compound 13] | drop in LANCE activity compared to 11 ([1]; carboxylic acid at R2 moved from ortho to para): more than tenfold drop in activity
8 | 0.13 | 74 ± 3.2 | – | COc1ccc(C2c3[nH]c4ccccc4c3CC3C(=O)N(c4ccccc4C(=O)NC(CC(=O)O)C(=O)O)C(=O)N32)cc1 (stereo not shown) [Compound 7] | –
9 | 0.42 | 3960 | – | O=C(O)CCC(=O)O [Compound 1, succinic acid] | IC50 [1]: ~4000 µM
10 | 0.13 | 311 ± 37 | – | COc1cccc(C2c3[nH]c4ccccc4c3CC3C(=O)N(c4ccccc4C(=O)NCC(=O)O)C(=O)N32)c1 (stereo not shown) [Compound 8] | –
